According to patent US5317026A, “Acetamide derivative and application thereof” (Snow Brand Milk Products Co., Ltd., priority 1992, dated 1994):

Key:
[1] = tested on: water immersion restrained stress induced ulcer; assay: Water immersion restrained stress induced model; format: in vivo, Wister male rats; conditions: for Suppression / Ulcer index: water immersion stress 7 hours; for Ulcer index: control 10.3 ± 4.5; for ED50: po, rat, per os, read-out: ED50 values in rat ulcer models, water immersion restrained stress induced model; for suppression of ulcers induced by the water dipping stress (in words): rats
Experimental: Experiments were carried out to investigate the pharmacological activity of Compound RT using ulcer models in Wister male rats. […] Cetraxate and Roxatidine, each suspended in 0.5% carboxymethyl cellulose (CMC), were administered to the rats using a per os probe, in an amount of 0.4 ml/100 g. 10 to 20 minutes after the administration, the animals were placed in an stress cage (manufactured by Natsume Manufacturing Co.) and dipped into water in a thermostat water bath at 21° C. to a depth of their processus xiphoideus to give a stress. After 7 hours, rats were taken out from the cage and sacrificed to cut out their stomach. 10 ml of a 2% formalin solution was charged into each stomach and the stomach was fixed in the solution for 10 minutes. After fixing, the stomach was opened along the greater curvature, and its mucosal surface was roughly washed with water. […] The total of such length (mm) in each animal was taken as an index for the ulcer production. The ulcer suppression rate (%) was determined based on the index applying the following formula. [(Ulcer index for the control)-(Ulcer index for the tested animal)]/(Ulcer index for the control)×100 (3) In order to more clearly identify the activity of Compound RT, both Roxatidine and Cetraxate hydrochloride were administered altogether.

[2] = tested on: hydrochloric acid-ethanol induced ulcer; assay: Hydrochloric acid-ethanol induced ulcer; format: in vivo, Wister male rats; conditions: for Suppression / Ulcer index: 60% ethanol containing 150 mM HCl, 1 hour; for Ulcer index: control 41.0 ± 10.9; for ED50: po, rat, per os, read-out: ED50 values in rat ulcer models, hydrochloric acid-ethanol induced ulcer; for suppression of ulcers induced by hydrochloric acid-ethanol (in words): rats
Experimental: Experiments were carried out to investigate the pharmacological activity of Compound RT using ulcer models in Wister male rats. Comparative tests were performed using commercial antiulcer drugs; Cetraxate (trade mark) and Roxatidine (trade mark), each having the following chemical structure. [drawing 11] [(Ulcer index for the control)-(Ulcer index for the tested animal)]/(Ulcer index for the control)×100 Groups of Wister male rats weighing 200-230 g, each group consisting of four rats, were fasted for 24 hours and subjected to the experiment. Cetraxate and Roxatidine, each suspended in 0.5% CMC, were administered to the rats using a per os probe, in an amount of 0.4 ml/100 g. […] After 1 hour, rats were sacrificed to cut out their stomach. 10 ml of a 2% formalin solution was charged into each stomach and the stomach was fixed in the solution for 10 minutes. After fixing, the stomach was opened along the greater curvature, and its mucosal surface was roughly washed with water. […] The total of such length (mm) in each animal was taken as an index for the ulcer production. The ulcer suppression rate (%) was determined in the same manner as above. (3) In order to more clearly identify the activity of Compound RT, both Roxatidine and Cetraxate hydrochloride were administered altogether.

[3] = water immersion model, than Cetraxate and Roxatidine
[4] = hydrochloric acid-ethanol model, than Cetraxate and Roxatidine

NC[C@H]1CC[C@H](C(=O)Oc2ccc(CCC(=O)O)cc2)CC1 [Cetraxate, reference compound]
Suppression ([1]; 25 mg/kg per os): 41.7% | Ulcer index ([1]; 25 mg/kg per os): 6.0 ± 3.3 mm | ED50 [1]: 200 mg/kg | Suppression ([2]; 40 mg/kg per os): 12.5% | Ulcer index ([2]; 40 mg/kg per os): 35.9 ± 14.7 mm | ED50 [2]: 60 mg/kg

NC[C@H]1CC[C@H](C(=O)OCC(=O)NCCCOc2cccc(CN3CCCCC3)c2)CC1 [Compound RT, 2-(trans-p-aminomethylcyclohexanecarboxy)-N-{3-[3-(1-piperidinomethyl)phenoxy]propyl}acetamide]
Suppression ([1]; 36 mg/kg per os): 93.2% | Ulcer index ([1]; 36 mg/kg per os): 0.7 ± 0.5 mm | suppression of ulcers induced by the water dipping stress (in words) [1]: effectively suppress the ulcers | effect on the suppression of the acute gastroduodenal ulcer compared with combined use of the two comparative drugs (in words) ([1]; versus combined use of the two comparative drugs): remarkably greater effect | rate of suppression compared with Cetraxate and Roxatidine (in words) [1, 3]: higher rate of suppression | ulcer index compared with Cetraxate and Roxatidine (in words) [1, 3]: lower ulcer index | Suppression ([2]; 58 mg/kg per os): 87.6% | Ulcer index ([2]; 58 mg/kg per os): 5.1 ± 5.5 mm | rate of suppression compared with Cetraxate and Roxatidine (in words) [2, 4]: higher rate of suppression | ulcer index compared with Cetraxate and Roxatidine (in words) [2, 4]: lower ulcer index | suppression of ulcers induced by hydrochloric acid-ethanol (in words) [2]: effectively suppress the ulcers | activity against the hydrochloric acid-ethanol induced ulcer compared with combined Roxatidine and Cetraxate hydrochloride (in words) ([2]; versus Roxatidine and Cetraxate hydrochloride administered altogether): almost the same as the case where both Roxatidine and Cetraxate hydrochloride were administered altogether

O=C(COC(=O)[C@H]1CC[C@H](CNC(=O)OCc2ccccc2)CC1)NCCCOc1cccc(CN2CCCCC2)c1 [Compound RTP, 2-(N-carbobenzoxy-trans-p-aminomethylhexanecarboxy)-N-{3-[3-(1-piperidinomethyl)-phenoxy]propyl}acetamide]
suppression of ulcers induced by the water dipping stress (in words) [1]: effectively suppress the ulcers | suppression of ulcers induced by hydrochloric acid-ethanol (in words) [2]: effectively suppress the ulcers

O=C(CO)NCCCOc1cccc(CN2CCCCC2)c1 [Roxatidine, N-[3-(3-piperidinomethylphenoxy)propyl]hydroxyacetamide, reference compound]
Suppression ([1]; 25 mg/kg per os): 75.7% | Ulcer index ([1]; 25 mg/kg per os): 2.5 ± 1.6 mm | ED50 [1]: 25 mg/kg | Suppression ([2]; 40 mg/kg per os): 64.2% | Ulcer index ([2]; 40 mg/kg per os): 14.7 ± 9.9 mm | ED50 [2]: 40 mg/kg
